Source: patent publication US20240398817A1, “CARDIO- AND RENOSAFE ANTIDIABETIC THERAPY” (priority 2018, published 2024)

System: patients with type 2 diabetes at high vascular risk
Test: Cardiovascular and Renal Outcomes Trial: linagliptin 5 mg once daily vs placebo on top of standard of care
Assay type: in vivo
Conditions: for Hazard ratio for hospitalised heart failure: vs placebo
Protocol: The effect of linagliptin on cardiovascular risk in adult patients with type 2 diabetes mellitus and with increased CV risk evidenced by a history of established macrovascular or renal disease (e.g. as defined herein) was evaluated in a multi-center, multi-national, randomized, double-blind parallel group trial. The trial compared the risk of experiencing a major adverse cardiovascular event (MACE) between linagliptin and placebo when these were added to and used concomitantly with standard of care treatments for diabetes (HbA1c), cardiovascular risk factors and renal disease.
The primary endpoint in this trial was the time to first occurrence of three point (3P) MACE. A major adverse cardiac event was defined as a cardiovascular death or a nonfatal myocardial infarction (MI) or a nonfatal stroke. The statistical analysis plan tested for non-inferiority for the occurrence of (3P) MACE. […] The secondary endpoint was a renal composite, defined as renal death or sustained end stage renal disease or sustained decrease of 40% or more in eGFR.
Type 2 diabetes patient with insufficient glycemic control (naïve or pre-treated with any antidiabetic background medication, excluding treatment with GLP-1 receptor agonists, DPP-4inhibitors or SGLT-2 inhibitors if ≥consecutive 7 days, e.g. having HbA1c 6.5-10%), and high risk of cardiovascular events, e.g. defined by: • albuminuria (micro or macro) and previous macrovascular disease: e.g. defined according to Condition I as indicated below; • and/or • impaired renal function: e.g. as defined according to Condition II as indicated below;
Background and aims: People with type 2 diabetes (T2D) are at increased risk for hospitalization for heart failure (hHF), particularly in the setting of concomitant cardiovascular (CV) and/or kidney disease. […] Here we present analyses of HF outcomes with the DPP-4 inhibitor linagliptin (LINA) vs. placebo (PBO) from a Cardiovascular and Renal Outcomes Trial assessing cardiovascular safety and renal microvascular outcome in patients with type 2 diabetes at high vascular risk, a large CV outcomes trial that enrolled participants with T2D at high risk for hHF due to concomitant CV and/or chronic kidney disease. Materials and methods: People with T2D and concomitant CV and/or kidney disease were randomized to receive LINA 5 mg, or PBO once daily (1:1), on top of standard of care. All hHF, CV outcomes, and deaths were centrally adjudicated, with individual and composite HF-related outcomes analyses comparing LINA vs. placebo. Investigator-reported HF-related adverse events, whether or not confirmed by adjudication, were also analyzed. A Cox proportional hazards model adjusting for region and history of HF was used for analyses of first events. Recurrent hHF events were analyzed using a negative binomial model.
Methods: The present Cardiovascular and Renal Outcomes Trial randomized people with T2D and i) concomitant CV disease with UACR >30 mg/g or ii) prevalent CKD (i.e. GFR <45 ml/min/1.73m2 and/or UACR >200 mg/g) to receive the DPP-4 inhibitor linagliptin (5 mg) or placebo once daily in a double-blind fashion. The primary CV endpoint was 3P-MACE, with a key secondary kidney endpoint (adjudicated ESKD, renal death, or sustained ≥40% decrease in eGFR from baseline) and other renal outcomes (including albuminuria and eGFR slope) also assessed. Subgroups were assessed by baseline kidney function (eGFR ≥/<45 ml/min/1.73m2and eGFR ≥/<30, 45 or 60 ml/min/1.73m2).
Adults with type 2 diabetes, HbA1c 6.5-10.0% inclusive, and high CV risk were eligible for inclusion. […] Macrovascular disease eligibility criteria was based on documented and confirmed history of myocardial infarction, coronary artery disease, stroke, carotid artery disease, or peripheral artery disease. Participants with end-stage kidney disease (ESKD), defined as eGFR <15 or requiring maintenance dialysis, were excluded.

[1] = Urine albumin-to-creatinine ratio 30 to 300 mg/g
[2] = Urine albumin-to-creatinine ratio <30 mg/g
[3] = Urine albumin-to-creatinine ratio >300 mg/g

CC#CCn1c(N2CCC[C@@H](N)C2)nc2c1c(=O)n(Cc1nc(C)c3ccccc3n1)c(=O)n2C [Linagliptin, 1-[(4-methyl-quinazolin-2-yl)methyl]-3-methyl-7-(2-butyn-1-yl)-8-(3-(R)-amino-piperidin-1-yl)-xanthine]
3-point MACE: hazard ratio vs placebo (Race Other): 1.86
3-point MACE: patients with event/patients analyzed (Race Other): 23/166
Key secondary kidney outcome: hazard ratio vs placebo (Race Other): 1.16
Key secondary kidney outcome: patients with event/patients analyzed (Race Other): 23/166
Patients with event/patients analysed, hospitalised heart failure (Race Other): 6/166
3-point MACE: hazard ratio vs placebo (Race White): 0.97
3-point MACE: patients with event/patients analyzed (Race White): 340/2827
Key secondary kidney outcome: hazard ratio vs placebo (Race White): 1.03
Key secondary kidney outcome: patients with event/patients analyzed (Race White): 237/2827
Patients with event/patients analysed, hospitalised heart failure (Race White): 174/2827
3-point MACE: hazard ratio vs placebo (Region Asia): 0.90
3-point MACE: patients with event/patients analyzed (Region Asia): 29/272
Key secondary kidney outcome: hazard ratio vs placebo (Region Asia): 0.96
Key secondary kidney outcome: patients with event/patients analyzed (Region Asia): 29/272
Patients with event/patients analysed, hospitalised heart failure (Region Asia): 12/272
Hazard ratio for hospitalised heart failure (Region Asia): 0.47
3-point MACE: hazard ratio vs placebo (Region Europe + South Africa): 0.92
3-point MACE: patients with event/patients analyzed (Region Europe + South Africa): 182/1473
Key secondary kidney outcome: hazard ratio vs placebo (Region Europe + South Africa): 0.96
Key secondary kidney outcome: patients with event/patients analyzed (Region Europe + South Africa): 98/1473
Patients with event/patients analysed, hospitalised heart failure (Region Europe + South Africa): 101/1473
Hazard ratio for hospitalised heart failure (Region Europe + South Africa): 1.13
3-point MACE: hazard ratio vs placebo (Region Latin America): 1.10
3-point MACE: patients with event/patients analyzed (Region Latin America): 132/1156
Key secondary kidney outcome: hazard ratio vs placebo (Region Latin America): 1.07
Key secondary kidney outcome: patients with event/patients analyzed (Region Latin America): 149/1156
Patients with event/patients analysed, hospitalised heart failure (Region Latin America): 54/1156
Hazard ratio for hospitalised heart failure (Region Latin America): 0.99
3-point MACE: hazard ratio vs placebo (Region North America): 1.25
3-point MACE: patients with event/patients analyzed (Region North America): 91/593
Key secondary kidney outcome: hazard ratio vs placebo (Region North America): 1.19
Key secondary kidney outcome: patients with event/patients analyzed (Region North America): 51/593
Patients with event/patients analysed, hospitalised heart failure (Region North America): 42/593
Hazard ratio for hospitalised heart failure (Region North America): 0.65
Key secondary kidney outcome: hazard ratio vs placebo (SBP 140 mmHg or DBP ≥90 mmHg): 1.08
Key secondary kidney outcome: patients with event/patients analyzed (SBP 140 mmHg or DBP ≥90 mmHg): 222/1800
3-point MACE: hazard ratio vs placebo (SBP <140 mmHg and DBP <90 mmHg): 0.93
3-point MACE: patients with event/patients analyzed (SBP <140 mmHg and DBP <90 mmHg): 185/1694
Key secondary kidney outcome: hazard ratio vs placebo (SBP <140 mmHg and DBP <90 mmHg): 0.99
Key secondary kidney outcome: patients with event/patients analyzed (SBP <140 mmHg and DBP <90 mmHg): 105/1694
3-point MACE: hazard ratio vs placebo (SBP ≥140 mmHg or DBP ≥90 mmHg): 1.11
3-point MACE: patients with event/patients analyzed (SBP ≥140 mmHg or DBP ≥90 mmHg): 249/1800
3-point MACE: hazard ratio vs placebo (Sulfonylurea No): 0.98
3-point MACE: patients with event/patients analyzed (Sulfonylurea No): 315/2392
Key secondary kidney outcome: hazard ratio vs placebo (Sulfonylurea No): 1.10
Key secondary kidney outcome: patients with event/patients analyzed (Sulfonylurea No): 252/2392
Patients with event/patients analysed, hospitalised heart failure (Sulfonylurea No): 166/2392
Hazard ratio for hospitalised heart failure (Sulfonylurea No): 0.92
3-point MACE: hazard ratio vs placebo (Sulfonylurea Yes): 1.15
3-point MACE: patients with event/patients analyzed (Sulfonylurea Yes): 119/1102
Key secondary kidney outcome: hazard ratio vs placebo (Sulfonylurea Yes): 0.87
Key secondary kidney outcome: patients with event/patients analyzed (Sulfonylurea Yes): 75/1102
Patients with event/patients analysed, hospitalised heart failure (Sulfonylurea Yes): 43/1102
Hazard ratio for hospitalised heart failure (Sulfonylurea Yes): 0.82
Composite microvascular endpoint: patients, % (Table 6): (36.3) %
ESKD (component of kidney composite outcome): % (Table 6): (0.03) %
ESKD (component of kidney composite outcome): no. (Table 6): 1
Renal death, sustained ESKD, or sustained decrease of 50% or more in eGFR from baseline: % (Table 6): (7.5) %
Renal death, sustained ESKD, or sustained decrease of 50% or more in eGFR from baseline: no. (Table 6): 263
Sustained decrease of 40% or more in eGFR (component of kidney composite outcome): % (Table 6): (1.8) %
Sustained decrease of 40% or more in eGFR (component of kidney composite outcome): no. (Table 6): 63
Composite microvascular outcome: number of patients, % of n = 3494 (Table 9): 22.5%
3-point MACE: hazard ratio vs placebo (UACR 30 to 300 mg/g): 0.95
3-point MACE: patients with event/patients analyzed (UACR 30 to 300 mg/g): 158/1463
Key secondary kidney outcome: hazard ratio vs placebo (UACR 30 to 300 mg/g): 1.30
Key secondary kidney outcome: patients with event/patients analyzed (UACR 30 to 300 mg/g): 53/1463
3-point MACE: hazard ratio vs placebo (UACR <30 mg/g): 1.10
3-point MACE: patients with event/patients analyzed (UACR <30 mg/g): 67/696
Key secondary kidney outcome: hazard ratio vs placebo (UACR <30 mg/g): 1.46
Key secondary kidney outcome: patients with event/patients analyzed (UACR <30 mg/g): 22/696
3-point MACE: hazard ratio vs placebo (UACR >300 mg/g): 1.06
3-point MACE: patients with event/patients analyzed (UACR >300 mg/g): 208/1333
Key secondary kidney outcome: hazard ratio vs placebo (UACR >300 mg/g): 0.97
Key secondary kidney outcome: patients with event/patients analyzed (UACR >300 mg/g): 252/1333
Patients with event/patients analysed, hospitalised heart failure [1]: 72/1463
Hazard ratio for hospitalised heart failure [1]: 0.86
Patients with event/patients analysed, hospitalised heart failure [2]: 26/696
Hazard ratio for hospitalised heart failure [2]: 0.76
Patients with event/patients analysed, hospitalised heart failure [3]: 111/1333
Hazard ratio for hospitalised heart failure [3]: 0.99
HbA1c vs PBO across all GFR categories, in words (across GFR categories): reduced significantly
Risk for hypoglycemia vs PBO across all GFR categories, in words (across GFR categories): without increased risk for hypoglycemia
Progression of albuminuria across all eGFR categories, in words (across eGFR categories): consistent beneficial effect
3P-MACE: incidence rate per 1000 PY (all patients): 57.7 per 1000 patient years
